Paper PMC12410356 (International Journal for Parasitology: Drugs and Drug …, 2025)

Tests used:
[1] = system: E. multilocularis metacestode vesicles; assay: Phosphoglucose isomerase (PGI) release assay (damage-marker release) on metacestode vesicles; type: cell-based, Echinococcus multilocularis; conditions: 10 μM; for PGI d5 (relative PGI release): 5 days; for PGI d12 (relative PGI release): 12 days
[2] = system: E. multilocularis metacestode vesicles; assay: Metacestode vesicle viability assay (ATP, CellTiter-Glo); type: cell-based, Echinococcus multilocularis
Method: Viability was assessed after 12 days using the same metacestode vesicles as for the PGI release assay. Triton X-100 was added to each well to a final concentration of 0.1 %. Subsequently the metacestode vesicles were broken mechanically and 50 μL of the supernatant was mixed with 50 μL of CellTiter-Glo® buffer (Promega, Dübendorf, Switzerland). Measurements were performed on a HIDEX Sense microplate reader.

[3] = overview screen, singlets, relative to 0.1 % Triton X-100, DMSO subtracted
[4] = overview screen, 10 μM, singlets, 12 days, relative to DMSO control
[5] = confirmation screen, triplicates, mean
[6] = confirmation screen, 10 μM, triplicates, mean, 12 days

## CCCCCCCc1[nH]c2ccccc2c(=O)c1O [MMV1578561]
[1]; [3]
  PGI d5 (relative PGI release): -1.205%
  PGI d12 (relative PGI release): -12.6441%
[2]; [4]
  Viability d12 (relative viability): 124.494%

## O=S(=O)(Nc1ccccc1)c1ccc(NC(=S)Nc2ccccc2)cc1 [MMV1578562]
[1]; [3]
  PGI d5 (relative PGI release): -3.292%
  PGI d12 (relative PGI release): -3.243%
[2]; [4]
  Viability d12 (relative viability): 118.128%

## Fc1ccc2c(/C=C/c3nnn[nH]3)c[nH]c2c1 [MMV1578563]
[1]; [3]
  PGI d5 (relative PGI release): -0.5513%
  PGI d12 (relative PGI release): -11.8723%
[2]; [4]
  Viability d12 (relative viability): 20.2898%

## CCc1cc(O)c(Oc2ccc(C(N)=O)cc2F)cc1F [MMV1578564]
[1]; [3]
  PGI d5 (relative PGI release): 19.4124%
  PGI d12 (relative PGI release): -2.538%
[2]; [4]
  Viability d12 (relative viability): 125.644%

## CSC[C@H]1CN(Cc2c[nH]c3c(N)ncnc23)C[C@@H]1O [MMV1578565]
[1]; [3]
  PGI d5 (relative PGI release): -1.805%
  PGI d12 (relative PGI release): -12.574%
[2]; [4]
  Viability d12 (relative viability): 59.0324%

## NC[C@H]1OB(O)c2c(OCCCO)cccc21 [MMV1578566]
[1]; [3]
  PGI d5 (relative PGI release): 0.6057%
  PGI d12 (relative PGI release): -3.009%
[2]; [4]
  Viability d12 (relative viability): 7.765%

## O=c1ccc2ncc(=O)n3c2n1CC3CN1CCC(NCc2cc3c(cn2)OCCC3)CC1 (stereo not drawn) [MMV1578568]
[1]; [3]
  PGI d5 (relative PGI release): -2.295%
  PGI d12 (relative PGI release): -8.489%
[2]; [4]
  Viability d12 (relative viability): 53.1876%

## O=C1NC(=S)N/C1=C\c1cc(Br)cc(Br)c1O [MMV1578569]
[1]; [3]
  PGI d5 (relative PGI release): 1.516%
  PGI d12 (relative PGI release): -5.575%
[2]; [4]
  Viability d12 (relative viability): 64.4597%

## CCC(C)NCC(O)Cn1c2ccc(Cl)cc2c2cc(Cl)ccc21 (stereo not drawn) [MMV1578570]
[1]; [5]
  PGI d5 (relative PGI release): -0.08%
  PGI d12 (relative PGI release): 0.27%
[1]; [3]
  PGI d5 (relative PGI release): 90.467%
  PGI d12 (relative PGI release): 70.4859%
[2]; [6]
  Viability d12 (relative viability): 94.06%
[2]; [4]
  Viability d12 (relative viability): 22.9025%

## COc1cc(NC(=O)CN2C(=O)NC(c3ccccc3)(c3ccccc3)C2=O)cc(OC)c1 [MMV1578572]
[1]; [3]
  PGI d5 (relative PGI release): -1.463%
  PGI d12 (relative PGI release): -23.3736%
[2]; [4]
  Viability d12 (relative viability): 61.4538%

## COc1ccc(SCC(=O)N2c3ccccc3Sc3ccccc32)cc1 [MMV1578573]
[1]; [3]
  PGI d5 (relative PGI release): -3.455%
  PGI d12 (relative PGI release): -10.5042%
[2]; [4]
  Viability d12 (relative viability): 50.7662%

## CN(C)[C@@H]1C(=O)C(C(N)=O)=C(O)[C@@]2(O)C(=O)C3=C(O)c4c(O)c(NC(=O)CN5CCCC5)cc(F)c4C[C@H]3C[C@@H]12.Cl.Cl [MMV1578574]
[1]; [3]
  PGI d5 (relative PGI release): -1.676%
  PGI d12 (relative PGI release): -12.2407%
[2]; [4]
  Viability d12 (relative viability): 18.1189%

## CC(=O)O[C@H]1C[C@@]2(C)[C@@H](C[C@@H](O)[C@H]3[C@@]4(C)CC[C@@H](O)[C@@H](C)[C@@H]4CC[C@@]32C)/C1=C(\CCC=C(C)C)C(=O)O [MMV1578575]
[1]; [3]
  PGI d5 (relative PGI release): 2.315%
  PGI d12 (relative PGI release): -12.4921%
[2]; 10 µM
  Viability d12 (relative viability): 144.199%

## O=C(Cc1ccccc1F)Nc1nc2ccccc2[nH]1 [MMV1578576]
[1]; [5]
  PGI d5 (relative PGI release): 0.17%
  PGI d12 (relative PGI release): 0.0454%
[1]; [3]
  PGI d5 (relative PGI release): 4.048%
  PGI d12 (relative PGI release): 84.4551%
[2]; [6]
  Viability d12 (relative viability): 92.12%
[2]; [4]
  Viability d12 (relative viability): 28.1158%

## O=C(NC12CC3CC(CC(C3)C1)C2)c1cc2ccccc2[nH]1 [MMV1578577]
[1]; [3]
  PGI d5 (relative PGI release): -0.2186%
  PGI d12 (relative PGI release): -2.179%
[2]; [4]
  Viability d12 (relative viability): 82.8787%

## O=C(Nc1nnc(-c2ccccc2)o1)c1ccc(F)cc1 [MMV1578578]
[1]; [3]
  PGI d5 (relative PGI release): -0.5299%
  PGI d12 (relative PGI release): 45.2443%
[2]; [4]
  Viability d12 (relative viability): 33.8998%

## COc1ccc(C)cc1NC(=O)c1ccc(S(=O)(=O)N2CCCCC2)cc1 [MMV1578579]
[1]; [3]
  PGI d5 (relative PGI release): -1.553%
  PGI d12 (relative PGI release): -13.2873%
[2]; [4]
  Viability d12 (relative viability): 52.1022%

## CCCCOC(=O)Nc1cc2nc(C3CCCCC3)[nH]c2cc1N(CC)CC [MMV1578842]
[1]; [5]
  PGI d5 (relative PGI release): -0.74%
  PGI d12 (relative PGI release): 0.24%
[1]; [3]
  PGI d5 (relative PGI release): 1.645%
  PGI d12 (relative PGI release): 57.0254%
[2]; [6]
  Viability d12 (relative viability): 57.98%
[2]; [4]
  Viability d12 (relative viability): 6.68%

## O=c1cc(NCCCN[C@@H]2CCOc3c(Br)cc(Br)cc32)[nH]c2ccsc12 [MMV1578884]
[1]; [3]
  PGI d5 (relative PGI release): 13.7393%
  PGI d12 (relative PGI release): 54.0946%
[2]; [4]
  Viability d12 (relative viability): 55.812%

## O=c1nc(N2CCN(CC3CCCCC3)CC2)sc2c([N+](=O)[O-])cc(C(F)(F)F)cc12 [MMV1578885]
[1]; [5]
  PGI d5 (relative PGI release): -0.21%
  PGI d12 (relative PGI release): 0.0323%
[1]; [3]
  PGI d5 (relative PGI release): 15.7367%
  PGI d12 (relative PGI release): 89.9274%
[2]; [6]
  Viability d12 (relative viability): 97.20%
[2]; [4]
  Viability d12 (relative viability): 20.6104%

## c1ccc(Cn2c(-c3ccccn3)nc3ccccc32)cc1 [MMV1578886]
[1]; [5]
  PGI d5 (relative PGI release): -0.18%
  PGI d12 (relative PGI release): -0.24%
[1]; [3]
  PGI d5 (relative PGI release): -1.473%
  PGI d12 (relative PGI release): 58.1597%
[2]; [6]
  Viability d12 (relative viability): 94.29%
[2]; [4]
  Viability d12 (relative viability): 16.9499%
